Data: patent US20230103554A1, “TNFa SIGNALING [sequence] TUMOR-PROMOTING INFLAMMATION THAT CAN BE TARGETED TO THERAPY” (Baylor College of Medicine, priority 2020, published 2023)
“Also recorded” adds a separate entry of the source.

Key:
monocyte IL-6 production = test: NB-monocyte co-culture, IL-6 ELISA of supernatant; type: cell-based, human
Description: (§1) Monocytes were directly cultured with wild-type or TNF, TNFR1, TNFR2 KO NB cell lines in ULA plates for 24 hours. Activation of NF-kB in monocytes and NB was measured by flow cytometry and cytokine production measured by ELISA from co-culture supernatant. To evaluate the contact-dependence of monocyte activation by NB, monocytes were cultured in ULA plates with seven-day NB conditioned medium mixed 1:1 with complete monocyte medium for 24 hours and analyzed for IL-6 production. To assess the growth advantage of NB cultured with monocytes, NB-luc cell lines and monocytes were seeded in tissue culture-treated white 96-well plates (1:1 ratio) and cultured for four days. Luminescence was measured using a TECAN Spark plate reader (TECAN). To evaluate changes in proliferation, NB was pulsed for 10 minutes in CellTrace Violet (2 μM, Invitrogen) and seeded at 100,000 cells per well in a 12-well tissue culture-treated plate. Monocytes were added directly to the NB monolayer at a density of 100,000 per well and incubated for four days. CellTrace Violet expression was analyzed by flow cytometry.
(§2) Cytokines released by monocytes were detected within co-culture supernatants using the Human TNF-alpha Quantikine ELISA Kit (TNFα, R&D Systems) and the Human IL-6 Quantikine ELISA Kit (IL-6, R&D Systems) according to manufacturer's guidelines. ELISA plates were read using a TECAN Spark plate reader (TECAN). Global cytokine regulation was evaluated using a custom Luminex panel containing the following cytokines: CX3CL1, CXCL10, EGF, FGF-2, Flt3L, G-CSF, GM-CSF, IL-1α, IL-1β, IL-1Ra, IL-4, IL-6, IL-8, IL-10, IL-12 (p40), IL-12 (p′70), M-CSF, MCP-1, MCP-3, MDC, MIP-1α, MIP-1β, TGFα, TNFα, TNFβ, and VEGF-A (Human Cytokine Panel A, Millipore-Sigma).

sTNFα production = test: NB-monocyte co-culture, TNFα ELISA of supernatant; type: cell-based, human
Description: as §1, §2

[1] = system: NF-κB signaling in NB cells; test: Intracellular IκBα in NB population of co-culture (PhosFlow flow cytometry); type: cell-based, human; settings: TAPI 40 μM, 24 hours, vs vehicle control (FIG. 23C)
Description: as §1
(§3) To evaluate the expression of TNFα in NB and monocytes, cells were first stimulated with LPS (50 ng/mL) in the presence of GolgiStop (BD Biosciences) and fixed using CytoFix/Cytoperm buffer (BD Biosciences). Cells were then stained with TNFα-PE (BD Biosciences). To evaluate the expression of TNFR1 and TNFR2 on NB and monocytes, cells were stained with TNFR1-BV421 and TNFR2-APC (BD Biosciences) in FACS staining buffer containing 0.05% sodium azide to prevent receptor/antibody processing. To estimate changes in NF-kB expression, treated co-cultures were first stained with ZombieViolet (1 μL/test, Biolegend) to counterstain dead cells and APC-H7 CD45 and/or FITC-CD14 to label monocytes for 20 minutes at room temperature. […] All flow samples were run using an LSRII 5-laser flow cytometer (Texas Children's Hospital Cancer Center Flow Cytometry Core, Houston, Tex.) and analyzed using FlowJo Software (Treestar).

[2] = system: NF-κB signaling in monocytes; test: Intracellular IκBα in monocyte population of co-culture (PhosFlow flow cytometry); type: cell-based, human; settings: TAPI 40 μM, 24 hours, vs vehicle control
Description: as §1, §3

mTNFα = settings: TAPI 40 μM, 24 hours, CD45+GD2− monocyte population
Description: (FIG. 13C) NB and monocyte co-cultures were treated with TNF converting enzyme inhibitor TAPI (40 μM) or vehicle control (Veh., 0.2% DMSO) for 24 hours. Surface expression of mTNFα within CD45+GD2− monocyte population was performed using flow cytometry. MFI as indicated. Data are from a representative of two experiments run in duplicate.

SMILES | IL-6 production from monocytes (monocyte IL-6 production; CHLA-255/monocyte co-culture, IKKi 0-1000 nM (FIG. 12C, FIG. 19)) | IL-6 production in NB-monocyte co-cultures (monocyte IL-6 production; IKK inhibitor VII 125 nM, 24 hours, vs 0.1% DMSO (FIG. 1C)) | soluble (s)TNFα production from monocytes (sTNFα production; CHLA-255/monocyte co-culture, IKKi 0-1000 nM (FIG. 12D, FIG. 19)) | IκBα expression level in NB cells [1] | intracellular IκBα expression in monocytes [2] | IL-6 levels in co-culture supernatant (monocyte IL-6 production; TAPI 40 μM, 24 hours, vs vehicle control) | increase in surface staining for mTNFα (mTNFα) | reduction in sTNFα levels in co-culture supernatant (sTNFα production; TAPI 40 μM, 24 hours)
O=C(c1ccc(Nc2nccc(-c3cc4ccccc4s3)n2)cc1)N1CCC(N2CCCC2)CC1 [IKK inhibitor VII] | dose-dependent abrogation | reversed IL-6 production | dose-dependent abrogation | – | – | – | – | –
CC(C)C[C@H](CC(=O)NO)C(=O)N[C@@H](Cc1ccc2ccccc2c1)C(=O)N[C@@H](C)C(=O)NCCN [TAPI, TAPI-1] | – | – | – | significant increase in IκBα expression level | no effect | increased the activation of monocytes as measured by IL-6 levels; also recorded: significantly increased IL-6 levels | 40% | 90%
